{"source": "patent US10273233B2", "about": "“Inhibitors of influenza viruses replication” (Vertex Pharmaceuticals Incorporated, priority 2015, dated 2019)", "key": {"[1]": {"assay": "physchem", "conditions": "thermodynamic from solid"}, "[2]": {"assay": "physchem", "conditions": "thermodynamic from solid", "remark": "listed apart in the source"}}, "note": "Like-named read-outs stand apart in the source and are kept apart here."}
{"smiles": "CC(C)(C)[C@@H](CC(=O)O)Nc1nc(-c2c[nH]c3ncc(F)cc23)ncc1F", "note": "[Hydrate 1 of Compound (1)]", "values": [{"measurement": "solubility at 5 days", "setting": "[1]; pH 1.55, fassgf or other biorelevant", "result": 2660, "unit": "µg/mL"}, {"measurement": "solubility at 5 days", "setting": "[1]; pH 3.56, aqueous with cosolvent or surfactant or cyclodextrin", "result": 285, "unit": "µg/mL"}, {"measurement": "solubility at 5 days", "setting": "[1]; pH 3.96, aqueous with cosolvent or surfactant or cyclodextrin", "result": 135, "unit": "µg/mL"}, {"measurement": "solubility at 5 days", "setting": "[1]; pH 4.15, aqueous with cosolvent or surfactant or cyclodextrin", "result": 1150, "unit": "µg/mL"}, {"measurement": "solubility at 5 days", "setting": "[1]; pH 4.17, aqueous with cosolvent or surfactant or cyclodextrin", "result": 1640, "unit": "µg/mL"}, {"measurement": "solubility at 5 days", "setting": "[1]; pH 4.18, saline or isotonic", "result": 108, "unit": "µg/mL"}, {"measurement": "solubility at 5 days", "setting": "[1]; pH 4.79, aqueous with cosolvent or surfactant or cyclodextrin", "result": 89, "unit": "µg/mL"}, {"measurement": "solubility at 5 days", "setting": "[1]; pH 4.84, saline or isotonic", "result": 94, "unit": "µg/mL"}, {"measurement": "solubility at 5 days", "setting": "[1]; pH 4.93, aqueous with cosolvent or surfactant or cyclodextrin", "result": 108, "unit": "µg/mL"}, {"measurement": "solubility at 5 days", "setting": "[1]; pH 5.03, water", "result": 98, "unit": "µg/mL"}, {"measurement": "solubility at 5 days", "setting": "[1]; pH 5.04, aqueous with cosolvent or surfactant or cyclodextrin", "result": 512, "unit": "µg/mL"}, {"measurement": "solubility at 5 days", "setting": "[1]; pH 5.08, aqueous with cosolvent or surfactant or cyclodextrin", "result": 606, "unit": "µg/mL"}, {"measurement": "solubility at 5 days", "setting": "[1]; pH 5.11, fessif", "result": 60, "unit": "µg/mL"}, {"measurement": "solubility at 5 days", "setting": "[1]; pH 5.13, aqueous with cosolvent or surfactant or cyclodextrin", "result": 354, "unit": "µg/mL"}, {"measurement": "solubility at 5 days", "setting": "[1]; pH 5.22, aqueous with cosolvent or surfactant or cyclodextrin", "result": 1620, "unit": "µg/mL"}, {"measurement": "solubility at 5 days", "setting": "[1]; pH 5.39, aqueous with cosolvent or surfactant or cyclodextrin", "result": 110, "unit": "µg/mL"}, {"measurement": "solubility at 5 days", "setting": "[1]; pH 5.53, aqueous with cosolvent or surfactant or cyclodextrin", "result": 223, "unit": "µg/mL"}, {"measurement": "solubility at 5 days", "setting": "[1]; pH 5.58, saline or isotonic", "result": 228, "unit": "µg/mL"}, {"measurement": "solubility at 5 days", "setting": "[1]; pH 5.59, aqueous with cosolvent or surfactant or cyclodextrin", "result": 152, "unit": "µg/mL"}, {"measurement": "solubility at 5 days", "setting": "[1]; pH 5.74, aqueous with cosolvent or surfactant or cyclodextrin", "result": 289, "unit": "µg/mL"}, {"measurement": "solubility at 5 days", "setting": "[1]; pH 5.78, aqueous with cosolvent or surfactant or cyclodextrin", "result": 1020, "unit": "µg/mL"}, {"measurement": "solubility at 5 days", "setting": "[1]; pH 5.83, aqueous with cosolvent or surfactant or cyclodextrin", "result": 1170, "unit": "µg/mL"}, {"measurement": "solubility at 5 days", "setting": "[1]; pH 5.97, aqueous with cosolvent or surfactant or cyclodextrin", "result": 272, "unit": "µg/mL"}, {"measurement": "solubility at 5 days", "setting": "[1]; pH 6.04, aqueous with cosolvent or surfactant or cyclodextrin", "result": 467, "unit": "µg/mL"}, {"measurement": "solubility at 5 days", "setting": "[1]; pH 6.17, aqueous with cosolvent or surfactant or cyclodextrin", "result": 120, "unit": "µg/mL"}, {"measurement": "solubility at 5 days", "setting": "[1]; pH 6.18, aqueous with cosolvent or surfactant or cyclodextrin", "result": 170, "unit": "µg/mL"}, {"measurement": "solubility at 5 days", "setting": "[1]; pH 6.19, aqueous with cosolvent or surfactant or cyclodextrin", "result": 200, "unit": "µg/mL"}, {"measurement": "solubility at 5 days", "setting": "[1]; pH 6.47, fassif", "result": 80, "unit": "µg/mL"}, {"measurement": "solubility at 5 days", "setting": "[1]; pH 6.61, aqueous buffer", "result": 945, "unit": "µg/mL"}, {"measurement": "solubility at 5 days", "setting": "[1]; pH 6.63, aqueous buffer", "result": 979, "unit": "µg/mL"}, {"measurement": "solubility at 5 days", "setting": "[1]; pH 6.7, aqueous with cosolvent or surfactant or cyclodextrin", "result": 360, "unit": "µg/mL"}, {"measurement": "solubility at 5 days", "setting": "[1]; pH 7.42, aqueous buffer", "result": 7620, "unit": "µg/mL"}, {"measurement": "solubility at 5 days", "setting": "[1]; pH 7.46, aqueous buffer", "result": 6620, "unit": "µg/mL"}, {"measurement": "solubility at 2 weeks", "setting": "[2]; pH 0.84, saline or isotonic", "result": 2150, "unit": "µg/mL"}, {"measurement": "solubility at 2 weeks", "setting": "[2]; pH 1.59, saline or isotonic", "result": 1150, "unit": "µg/mL"}, {"measurement": "solubility at 2 weeks", "setting": "[2]; pH 2.84, saline or isotonic", "result": 57, "unit": "µg/mL"}, {"measurement": "solubility at 2 weeks", "setting": "[2]; pH 4.22, saline or isotonic", "result": 4, "unit": "µg/mL"}, {"measurement": "solubility at 2 weeks", "setting": "[2]; pH 5.17, saline or isotonic", "result": 21, "unit": "µg/mL"}, {"measurement": "solubility at 2 weeks", "setting": "[2]; pH 5.96, saline or isotonic", "result": 78, "unit": "µg/mL"}, {"measurement": "solubility at 2 weeks", "setting": "[2]; pH 6.38, saline or isotonic", "result": 216, "unit": "µg/mL"}, {"measurement": "solubility at 2 weeks", "setting": "[2]; pH 6.71, saline or isotonic", "result": 420, "unit": "µg/mL"}, {"measurement": "solubility at 2 weeks", "setting": "[2]; pH 7.07, saline or isotonic", "result": 335, "unit": "µg/mL"}, {"measurement": "solubility at 2 weeks", "setting": "[2]; pH 7.73, saline or isotonic", "result": 2240, "unit": "µg/mL"}, {"measurement": "solubility at 2 weeks", "setting": "[2]; pH 8.13, saline or isotonic", "result": 4830, "unit": "µg/mL"}, {"measurement": "solubility at 2 weeks", "setting": "[2]; pH 8.4, saline or isotonic", "result": 4360, "unit": "µg/mL"}, {"measurement": "USP Definition", "setting": "pH 0.84", "result": "Slightly Soluble"}, {"measurement": "USP Definition", "setting": "pH 1.59", "result": "Slightly Soluble"}, {"measurement": "Final Form", "setting": "pH 2.84", "result": "Hydrate 3"}, {"measurement": "USP Definition", "setting": "pH 2.84", "result": "Practically Insoluble"}, {"measurement": "Final Form", "setting": "pH 4.22", "result": "Hydrate 3"}, {"measurement": "USP Definition", "setting": "pH 4.22", "result": "Practically Insoluble"}, {"measurement": "Final Form", "setting": "pH 5.17", "result": "Hydrate 3"}, {"measurement": "USP Definition", "setting": "pH 5.17", "result": "Practically Insoluble"}, {"measurement": "Final Form", "setting": "pH 5.96", "result": "Hydrate 3"}, {"measurement": "USP Definition", "setting": "pH 5.96", "result": "Practically Insoluble"}, {"measurement": "Final Form", "setting": "pH 6.38", "result": "Hydrate 3"}, {"measurement": "USP Definition", "setting": "pH 6.38", "result": "Very Slightly Soluble"}, {"measurement": "Final Form", "setting": "pH 6.71", "result": "Hydrate 3"}, {"measurement": "USP Definition", "setting": "pH 6.71", "result": "Very Slightly Soluble"}, {"measurement": "Final Form", "setting": "pH 7.07", "result": "Hydrate 3"}, {"measurement": "USP Definition", "setting": "pH 7.07", "result": "Very Slightly Soluble"}, {"measurement": "Final Form", "setting": "pH 7.73", "result": "Hydrate 3"}, {"measurement": "USP Definition", "setting": "pH 7.73", "result": "Slightly Soluble"}, {"measurement": "Final Form", "setting": "pH 8.13", "result": "Hydrate 3"}, {"measurement": "USP Definition", "setting": "pH 8.13", "result": "Slightly Soluble"}, {"measurement": "Final Form", "setting": "pH 8.4", "result": "Hydrate 3"}, {"measurement": "USP Definition", "setting": "pH 8.4", "result": "Slightly Soluble"}]}
